These results are taken from patent publication US11649236B2, “Polycyclic carbamoylpyridone derivative” (Shionogi & Co., Ltd., priority 2018, dated 2023).

For data set [1], the system named is HIV mutant strain 1 (E138K/G140S/Q148H/N155H). Nature of the data set: Resistance evaluation test (HeLa-CD4 reporter), mutant strain 1. In kind it is cell-based. As to conditions: FC=EC50 of mutant strain/EC50 of wild strain, HeLa-CD4 cells. The protocol: (§1) Serial dilutions of a test sample were prepared in a96-well microplate (50 μL/well). 2.5×10^5 cells/mL of a HeLa-CD4 cell suspension was dispensed at 100 μL/well to the plate containing the test sample. Then, an HIV virus solution (wild strain and mutant strain) was dispensed at 50 μL/well. The plate was mixed with a plate mixer and cultured for 3 days in a CO2 incubator. The culture supernatant in each well was removed by suction. A cell lysis buffer in a reporter assay kit was dispensed at 100 μL/well, and the plate was frozen in a freezer (−80° C.). The plate frozen in a freezer was thawed at room temperature, then mixed with a plate mixer, and centrifuged at 1,200 rpm for 5 minutes. The supernatant of each well was dispensed at 20 μL/well to a 96-well microplate (BLACK). A chemiluminescent reagent in the reporter assay kit was dispensed at 100 μL/well and reacted at room temperature for approximately 1 hour. Then, luminescence intensity was measured using MicroBeta TRILUX. […] FC=EC50 of mutant strain/EC50 of wild strain (Results) FC for the mutant strain 1 (E138K/G140S/Q148H/N155H) and FC for the mutant strain 2 (E92Q/E138T/G140S/Q148H) are shown in the table.

Data set [2] relates to HIV. Nature of the data set: Anti-HIV activity evaluation test in the presence of human serum protein (MT-4 cells). In kind it is cell-based. The conditions noted are these: PS=4×(EC50 in 25% human serum protein/EC50 in absence), 100% extrapolation value. Here is the method: Serial dilutions of a test sample were prepared in a 96-well microplate (50 μL/well). A human serum protein solution (50% human serum protein concentration) was dispensed at 100 μL/well into a 96-well microplate containing the test sample, and allowed to be left still at room temperature for 1 hour. For the plate of serum absence, the culture medium was dispensed at 100 μL/well. 3.0×10^5/well of MT-4 cells and 3 μL/well of an HIV viral solution were mixed in an amount of the required number of wells, and the mixture was reacted at 37° C. for 1 hour. After the reaction, the cell suspension was centrifuged and the supernatant was discarded, and the infected cells were dispersed in the culture medium in an amount of the required number of wells at 50 μL/well, and dispensed at 50 μL/well to a 96-well microplate containing the test sample and human serum protein (final concentration of the human serum protein: 25%). The plate was mixed with a plate mixer and cultured for 4 days in a CO2 incubator. An MTT (3-(4,5-dimethylthiazol-2-yl)-2,5-diphenyltetrazolium bromide) solution was dispensed at 30 μL/well. The plate was reacted for 1 hour in a CO2 incubator. 150 μL of the supernatant was removed from each well so as not to take up the cells. […] The absorbance of the mixed plate was measured at two wavelengths of 560 nm and 690 nm using a microplate reader. […]

For data set [3], the system named is HIV mutant strain 2 (E92Q/E138T/G140S/Q148H). Nature of the data set: Resistance evaluation test (HeLa-CD4 reporter), mutant strain 2. In kind it is cell-based. The conditions noted are these: FC=EC50 of mutant strain/EC50 of wild strain, HeLa-CD4 cells. Here is the method:
as §1

For data set [4], the system named is HIV. Description: Anti-HIV activity (MT-4 cells, MTT). In kind it is cell-based. As to conditions: Human immunodeficiency virus 1, MT4, 96 h, cultured 4 days. In short, it runs like this: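 MT-4 cells (2.5×10^5 cells/mL) mixed with serial dilutions of test sample and HIV, cultured 4 days in CO2 incubator. MTT added for 1 h, cells lysed, absorbance read at 560 nm and 690 nm.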

The test system of data set [5] is HIV. Nature of the data set: Anti-HIV activity evaluation test using PBMC of healthy humans. In kind it is cell-based. The conditions noted are these: Human immunodeficiency virus 1, 96 h, read-out: 90% HIV inhibitory concentration (EC90); PHA-stimulated PBMC, 4 days, reverse transcriptase activity. The protocol: Serial dilutions of a test sample were prepared in a 96-well microplate (50 μL/well). 1.0×10^5/well of PBMC stimulated with Phytohemagglutinin (PHA) and an HIV viral solution were mixed in the required number of wells and the mixture was reacted at 37° C. for 1 hour. After the reaction, the cell suspension was centrifuged and the supernatant was discarded, and the infected cells were dispersed in the culture medium in the required number of wells at 150 μL/well. The obtained medium was dispensed at 150 μL/well to a 96-well microplate containing the test sample. The plate was mixed with a plate mixer and cultured for 4 days in a CO2 incubator. The reverse transcriptase activity in the culture medium was measured.

A short description of a further data set: Metabolic stability test. In kind it is in vitro ADME, human. Further details: key: % remaining vs amount at 0 min (=100%). As to conditions: compound 0.5 μmol/L, human liver microsomes 0.5 mg protein/mL, NADPH, 37° C., 30 minutes; amount at 0 minutes defined as 100%. The protocol:
Commercially available pooled human liver microsomes were reacted with the compound of the present invention for a certain time. A residual rate was calculated by the comparison between the reacted sample and an unreacted sample to evaluate the degree at which the compound of the present invention is metabolized in the liver. A reaction was performed (oxidative reaction) at 37° C. for 0 minutes or 30 minutes in the presence of 1 mmol/L NADPH in 0.2 mL of a buffer (50 mmol/L Tris-HCl pH 7.4, 150 mmol/L potassium chloride, 10 mmol/L magnesium chloride) containing 0.5 mg protein/mL of human liver microsomes. After the reaction, 50 μL of the reaction solution was added to 100 μL of a solution of methanol/acetonitrile=1/1 (v/v) and mixed, and the mixture was centrifuged at 3000 rpm for 15 minutes. The compound of the present invention in the centrifugation supernatant was quantified by LC/MS/MS or solid-phase extraction (SPE)/MS. The amount of the compound of the present invention remaining after the reaction was calculated with the amount of the compound at 0 minutes of the reaction defined as 100%.

In data set [6] the target is Voltage gated sodium channel (Nav 1.5 channel) (Homo sapiens, UniProt Q14524). As to conditions: pH 7.4.
Sequence of Voltage gated sodium channel (Nav 1.5 channel) (Q14524 whole entry): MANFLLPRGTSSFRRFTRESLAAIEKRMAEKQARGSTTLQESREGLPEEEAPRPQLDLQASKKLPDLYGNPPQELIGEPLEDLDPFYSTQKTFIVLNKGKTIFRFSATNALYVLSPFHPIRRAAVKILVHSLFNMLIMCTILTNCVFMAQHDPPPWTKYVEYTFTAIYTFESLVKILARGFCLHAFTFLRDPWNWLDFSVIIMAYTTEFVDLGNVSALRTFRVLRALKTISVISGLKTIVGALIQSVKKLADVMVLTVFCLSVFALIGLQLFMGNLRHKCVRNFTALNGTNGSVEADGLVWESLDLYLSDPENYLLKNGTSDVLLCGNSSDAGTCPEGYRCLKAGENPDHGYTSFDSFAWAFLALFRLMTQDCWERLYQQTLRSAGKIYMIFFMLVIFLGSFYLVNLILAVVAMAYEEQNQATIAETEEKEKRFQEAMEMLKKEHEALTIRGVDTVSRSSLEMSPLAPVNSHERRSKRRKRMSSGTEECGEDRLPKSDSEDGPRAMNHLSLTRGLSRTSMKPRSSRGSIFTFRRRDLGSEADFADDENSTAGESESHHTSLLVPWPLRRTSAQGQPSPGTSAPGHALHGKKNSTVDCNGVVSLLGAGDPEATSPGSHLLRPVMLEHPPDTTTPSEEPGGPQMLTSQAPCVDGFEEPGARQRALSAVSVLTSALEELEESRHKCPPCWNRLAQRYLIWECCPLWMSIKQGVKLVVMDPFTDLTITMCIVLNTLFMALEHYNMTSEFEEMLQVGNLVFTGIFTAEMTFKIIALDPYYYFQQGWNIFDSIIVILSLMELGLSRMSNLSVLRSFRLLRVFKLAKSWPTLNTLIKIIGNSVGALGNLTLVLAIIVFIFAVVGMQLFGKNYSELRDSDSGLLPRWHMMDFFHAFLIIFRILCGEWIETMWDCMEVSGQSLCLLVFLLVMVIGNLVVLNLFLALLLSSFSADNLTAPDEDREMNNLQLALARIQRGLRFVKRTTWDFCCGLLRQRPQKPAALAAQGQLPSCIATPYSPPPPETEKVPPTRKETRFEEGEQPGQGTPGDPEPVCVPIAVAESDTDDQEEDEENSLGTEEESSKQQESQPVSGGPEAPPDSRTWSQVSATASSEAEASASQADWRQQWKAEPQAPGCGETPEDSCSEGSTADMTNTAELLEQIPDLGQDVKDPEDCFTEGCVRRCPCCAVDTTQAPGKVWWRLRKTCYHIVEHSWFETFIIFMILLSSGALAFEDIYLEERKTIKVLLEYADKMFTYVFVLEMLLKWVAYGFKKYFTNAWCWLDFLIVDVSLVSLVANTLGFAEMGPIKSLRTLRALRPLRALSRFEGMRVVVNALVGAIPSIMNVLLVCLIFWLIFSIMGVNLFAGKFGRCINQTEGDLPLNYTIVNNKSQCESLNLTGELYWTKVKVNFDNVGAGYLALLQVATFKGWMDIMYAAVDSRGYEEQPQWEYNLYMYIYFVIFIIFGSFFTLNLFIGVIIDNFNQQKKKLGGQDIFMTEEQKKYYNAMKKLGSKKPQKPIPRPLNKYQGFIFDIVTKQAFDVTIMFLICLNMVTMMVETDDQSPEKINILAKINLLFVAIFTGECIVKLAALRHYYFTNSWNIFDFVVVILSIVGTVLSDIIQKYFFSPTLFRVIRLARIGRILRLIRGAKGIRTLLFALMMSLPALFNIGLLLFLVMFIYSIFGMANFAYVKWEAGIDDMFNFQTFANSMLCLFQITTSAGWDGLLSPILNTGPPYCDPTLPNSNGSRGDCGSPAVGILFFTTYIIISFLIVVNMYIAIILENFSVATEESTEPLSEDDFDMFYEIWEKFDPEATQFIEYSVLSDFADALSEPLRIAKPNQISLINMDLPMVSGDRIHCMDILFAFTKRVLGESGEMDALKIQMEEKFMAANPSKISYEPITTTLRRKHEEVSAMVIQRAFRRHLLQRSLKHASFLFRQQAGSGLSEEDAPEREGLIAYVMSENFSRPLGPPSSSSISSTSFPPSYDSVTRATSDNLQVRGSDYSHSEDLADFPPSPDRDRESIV
From the text: For the purpose of assessing risk of arrhythmogenesis of the compound of the present invention, effects of the compound of the present invention on Na^+ current (INa), which plays an important role in the depolarization process of myocardium, was studied using HEK cells expressing Voltage gated sodium channel (Nav 1.5 channel) encoded by SCN5A gene. A cell is retained at a membrane potential of −100 mV by the whole cell patch clamp method using an automated patch clamp system (QPatch; Sophion Bioscience A/S), then INa induced by depolarization stimulation at −10 mV for 20 milliseconds, was recorded. […] From the obtained INa, an absolute value of the maximum peak current was measured based on the current value at the resting membrane potential using analysis software (QPatch Assay software; Sophion Bioscience A/S). The maximum peak current at the time of the application of the compound of the present invention with respect to the maximum peak current at the time of the application of the vehicle was further calculated to evaluate the influence of the compound of the present invention on INa.
Data set [7] is described as follows: Clearance evaluation test. In kind it is in vivo. The conditions noted are these: rat, plasma, 1 umol/kg, rats, intravenous 1 μmol/kg; for half-life: read-out: elimination half-life (t½) (converted); for clearance: read-out: total body clearance (CLtot). The source says: Experimental Material and Method (1) Animals used: rats were used. (2) Rearing conditions: the rats were allowed to freely take solid feed and sterilized tap water. (3) Dose and grouping setting: a predetermined dose was intravenously administered. Groups were set as follows: Intravenous administration: 1 μmol/kg (n=2) (4) Preparation of dosing solution: the test sample was solubilized using a solvent of dimethyl sulfoxide/propylene glycol=1/1 and administered. (5) Administration method: the test sample was administered to the tail vein through a syringe with an injection needle. (6) Evaluation item: blood was collected over time, and the concentration of the compound of the present invention in plasma was measured using LC/MS/MS. (7) Statistical analysis: total body clearance (CLtot) and elimination half-life (t½) were calculated as to change in the concentration of the compound of the present invention in plasma by the moment analysis method.

Data set [8] relates to HIV mutant strain 3 (E92Q/E138K/G140S/Q148H). Description: Resistance evaluation test (HeLa-CD4 reporter), mutant strain 3. In kind it is cell-based. The conditions noted are these: FC=EC50 of mutant strain/EC50 of wild strain, HeLa-CD4 cells. The protocol:
as §1

The subject of data set [9] is HIV mutant strain (T97A/E138T/G140S/Q148H). Description: Resistance evaluation test (HeLa-CD4 reporter), mutant strain T97A/E138T/G140S/Q148H. In kind it is cell-based. The conditions noted are these: FC=EC50 of mutant strain/EC50 of wild strain; HeLa-CD4 cells.

On to `CCN1C(=O)c2c(O)c(=O)c(C(=O)NCc3ccc(F)cc3F)cn2N2C[C@@H](C)C[C@@H]12` [II-051], for which, in data set [1], the “FC mutant strain 1” value was 19. Also, in the data set on HIV [2], the “Potency shift (PS)” value is reported as 236. For the same molecule, in data set [3], the “FC mutant strain 2” value was determined as 21. Further, in the data set on HIV [4], a half-maximal response (EC50) required 0.74 nM. Also, in the data set with HIV [5], the EC90 turned out to be 3.3 nM. The molecule also showed a residual rate in “Metabolic stability test” of 96.

In the case of `COC[C@@H]1CC[C@H]2N(C)C(=O)c3c(O)c(=O)c(C(=O)NCc4cccc(Cl)c4F)cn3N12` [II-031], in data set [1], the “FC mutant strain 1” value worked out at 10. Besides, the “Potency shift (PS)” value in the data set with HIV [2] is listed as 364. For the same molecule, the “maximum peak current (INa) with compound with respect to vehicle” value in data set [6] was determined as 79%. For the same molecule, the “FC mutant strain 2” value in data set [3] came to 6.9. For the same molecule, in the data set on HIV [4], a half-maximal effect (EC50) was put at 0.34 nM. The EC90 in the data set on HIV [5] was determined as 0.73 nM. The molecule also gave a residual rate in the data set “Metabolic stability test” of 86.

With `CN1C(=O)c2c(O)c(=O)c(C(=O)NCc3ccc(F)cc3F)cn2N2CCCC[C@@H]12` [Compound I-015], the “FC mutant strain 1” value in [1] is recorded as 51. Also, the “maximum peak current (INa) with compound with respect to vehicle” value in [6] is reported as 92.1%. In addition, in [7], the half-life is 12.3 h and the clearance was found to be 0.111 mL/min/kg. The “FC mutant strain 2” value in data set [3] was determined as 18. Further, a half-maximal effect in the data set on HIV [4] (EC50) was put at 3.6 nM. In [8], the “FC for the mutant strain 3” value is recorded as 7.7. In the data set “Metabolic stability test”, this molecule registered a residual rate of 103. Also, the “FC for the mutant strain (T97A/E138T/G140S/Q148H)” value in [9] came to 10.

As to `CN1C(=O)c2c(O)c(=O)c(C(=O)NCc3cccc(Cl)c3F)cn2N2C[C@@H]3CC[C@@H](C3)[C@@H]12` [II-028], the “FC mutant strain 1” value in data set [1] is 9.9. In data set [7], the half-life is 26.7 h and the clearance was found to be 0.102 mL/min/kg. The “FC mutant strain 2” value in data set [3] is 15. In the data set with HIV [4], this molecule gave an EC50 of 1.4 nM. This molecule also registered a residual rate in the data set “Metabolic stability test” of 74.2.

`CCN1C(=O)c2c(O)c(=O)c(C(=O)NCc3ccc(F)cc3F)cn2N2C[C@@H]3CC[C@@H](O3)[C@@H]12` [II-102]: the “FC mutant strain 1” value in [1] stood at 47. Moreover, in data set [3], the “FC mutant strain 2” value came out at 45. This molecule showed an EC50 with HIV [4] of 0.61 nM. In “Metabolic stability test”, the residual rate is 101.
